Literature values, collected in patent publication US20100215737A1, “COMBINATION PHARMACEUTICAL COMPOSITIONS” (priority 2007, published 2010).

How the values were obtained:
[1] = system: subventricular zone and dentate gyrus cells; conditions: young adult rats
[2] = system: endothelial nitric oxide synthase (eNOS); conditions: mouse, in vivo
[3] = marketed formulations
[4] = system: ischemic damage in the rat cortex; conditions: in vivo
[5] = target: T1, PgP (Homo sapiens, UniProt P08183)
T1 construct: PgP is found in the luminal plasma membrane of brain capillary endothelial cells (BCEC); host or cells: blood brain barrier / primary cultured BCEC

[6] = system: APP holoprotein and mRNA; conditions: 50 microM
[7] = system: MCO
[8] = relative to small intestine
[9] = system: permanent and transient focal ischemia; conditions: >0.1 mg/kg iv immediately after onset of ischemia
[10] = system: mdr-1a knockout and wild type mice; conditions: mdr-1a knockout vs wild type mice, oral
[11] = human, in vivo
[12] = system: transient focal ischemia; conditions: in vivo
[13] = system: middle cerebral artery occlusion (MCO); conditions: 0.32 to 1.0 mg/kg iv immediately after occlusion
[14] = system: transient global ischemia; conditions: 1 mg/kg iv immediately after reperfusion
[15] = system: middle cerebral artery occlusion; conditions: single iv bolus 0.1 mg/kg immediately or 3 h after occlusion
[16] = system: CYP; conditions: concentration of up to 1 μM
[17] = system: peripheral nerve damage; conditions: after peripheral nerve damage
[18] = system: global ischemic insult; conditions: mice
[19] = target: T1, PgP; conditions: dose-depended effect

T1 sequence (P08183 whole entry): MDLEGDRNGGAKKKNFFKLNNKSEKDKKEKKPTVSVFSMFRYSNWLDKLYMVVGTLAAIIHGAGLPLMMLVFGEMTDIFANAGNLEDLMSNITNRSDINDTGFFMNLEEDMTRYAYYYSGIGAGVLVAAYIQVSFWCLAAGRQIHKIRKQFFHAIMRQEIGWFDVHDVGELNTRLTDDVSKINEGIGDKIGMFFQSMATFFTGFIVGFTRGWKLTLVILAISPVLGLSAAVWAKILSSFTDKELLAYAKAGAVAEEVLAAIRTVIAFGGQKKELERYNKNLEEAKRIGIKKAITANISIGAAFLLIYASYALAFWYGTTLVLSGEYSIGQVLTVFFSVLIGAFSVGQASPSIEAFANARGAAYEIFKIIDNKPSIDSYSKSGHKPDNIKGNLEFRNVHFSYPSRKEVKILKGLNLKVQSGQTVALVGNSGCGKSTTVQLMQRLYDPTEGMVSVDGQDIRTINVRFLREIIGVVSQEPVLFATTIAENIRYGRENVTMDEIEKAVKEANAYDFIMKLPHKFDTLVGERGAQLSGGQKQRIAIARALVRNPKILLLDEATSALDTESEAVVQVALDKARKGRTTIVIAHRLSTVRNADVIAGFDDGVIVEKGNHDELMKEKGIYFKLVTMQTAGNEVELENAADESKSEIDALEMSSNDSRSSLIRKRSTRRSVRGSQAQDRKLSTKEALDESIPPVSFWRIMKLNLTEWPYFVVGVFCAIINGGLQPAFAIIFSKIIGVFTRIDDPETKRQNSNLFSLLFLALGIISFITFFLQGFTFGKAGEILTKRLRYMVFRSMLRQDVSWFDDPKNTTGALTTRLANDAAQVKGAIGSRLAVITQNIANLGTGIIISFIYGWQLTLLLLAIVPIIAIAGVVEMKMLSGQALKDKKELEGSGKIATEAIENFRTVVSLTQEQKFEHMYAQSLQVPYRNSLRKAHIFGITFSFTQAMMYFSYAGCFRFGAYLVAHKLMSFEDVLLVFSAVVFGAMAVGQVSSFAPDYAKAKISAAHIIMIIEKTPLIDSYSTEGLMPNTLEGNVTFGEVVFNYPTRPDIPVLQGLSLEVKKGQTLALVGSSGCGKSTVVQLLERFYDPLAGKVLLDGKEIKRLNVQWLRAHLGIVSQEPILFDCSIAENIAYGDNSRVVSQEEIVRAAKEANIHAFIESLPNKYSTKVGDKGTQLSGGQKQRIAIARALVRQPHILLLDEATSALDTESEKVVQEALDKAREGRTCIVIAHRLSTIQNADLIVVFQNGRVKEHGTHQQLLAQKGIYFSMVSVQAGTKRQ

In the case of `NCCN(CCN)/[N+]([O-])=N/O` [DETA/NONOate, (Z)-1-[N-(2-aminoethyl)-N-(2-ammonioethyl)amino]diazen-1-ium-1,2-diolate], the “cell proliferation and migration in the subventricular zone and the dentate gyrus” value [1] is given as “significantly increases cell proliferation and migration”.
In the case of `CC[C@H](C)C(=O)O[C@H]1CCC=C2C=C[C@H](C)[C@H](CC[C@@H]3C[C@@H](O)CC(=O)O3)[C@H]21` [Mevastatin], the “cerebral blood flow (CBF)” value [2] is given as “augmented absolute CBF” and the eNOS expression [2] is given as “increase in eNOS mRNA and protein levels”.
For `COCCOC(=O)C1=C(C)NC(C)=C(C(=O)OC(C)C)C1c1cccc([N+](=O)[O-])c1` (stereo not drawn) [Nimodipine], the “bioavailability after oral administration, average” value [3] is given as “approximately 25%” and the solubility in water is given as “practically insoluble in water”.
In the case of `C=CC[C@@H]1/C=C(\C)C[C@H](C)C[C@H](OC)[C@H]2O[C@@](O)(C(=O)C(=O)N3CCCC[C@H]3C(=O)O[C@H](/C(C)=C/[C@@H]3CC[C@@H](O)[C@H](OC)C3)[C@H](C)[C@@H](O)CC1=O)[C@H](C)C[C@@H]2OC` [Tacrolimus], the “reduction of ischemic damage in the rat cortex” value [4] is listed as “up to 70%”, the “affinity for PgP” value [5] is listed as roughly 0.1 µM and the “increases in APP holoprotein and mRNA caused by PGE2 treatment” value [6] is listed as “completely inhibited”. For the same molecule, the “neuroprotective effect, drug alone” value ([7]; 1 mg/kg iv alone, 1, 2 or 3 h after occlusion) was “neuroprotective effects when administered alone up to 1 h following occlusion”, the “brain damage, combination with rt-PA” value ([7]; tacrolimus 1 mg/kg plus same dose of rt-PA iv) was “significant reduction in brain damage was observed at up to 2 h following occlusion” and the “ileum and colonic absorption efficiency” value [8] was “half that observed for the small intestine”. For the same molecule, the ischemic brain damage [9] was “significant reduction in ischemic brain damage”, the blood concentrations [10] was “significantly higher” and the “concentration in brain tissue, fold higher” value [10] was 10 fold. For the same molecule, the “total clearance, reduction” value [10] was 66%, the incidence of diabetes [11] was 20 % of all patients and the peptidyl-prolyl isomerase activity [12] was “blocked the increase in peptidyl-prolyl isomerase activity”. The “reduction of infarct size” value [12] was 53%, the infarction area [13] was “dose-dependently reduced the infarction area” and the neuroprotective effect [14] was “long-lasting neuroprotective effects”. The cortical brain damage [15] was “reducing cortical brain damage”, the “reductions of cerebral metabolic rate of oxygen and oxygen extraction function” value [15] was “significantly attenuated” and the “effect on CYP activities” value [16] was “little detectable effect”. The “increase of axonal growth” value [17] was 20% and the “reduction of hippocampal damage” value [18] was “more than 80%”.
For `O=C(O)[C@H]1O[C@@H](Oc2cc3oc(-c4ccccc4)cc(=O)c3c(O)c2O)[C@H](O)[C@@H](O)[C@@H]1O` [baicalin], the “transport of nimodipine across the BBB” value [19] is given as “increased the transport of nimodipine across the BBB”.
In the case of `COc1ccc2cc3[n+](cc2c1OC)CCc1cc2c(cc1-3)OCO2` [berberine], the “transport of nimodipine across the BBB” value [19] is given as “increased the transport of nimodipine across the BBB”.
